The values below are quoted from earlier work in patent US20220117866A1, “ANHYDROUS ALCOHOL-FREE SILKY FRAGRANCE FORMULATION” (AKI, Inc., priority 2020, published 2022).

For the data set, the system named is laboratory animals. To be noted: oral, dermal and inhalation routes.

Counter-ions that a name gives are not always drawn.

On to `CCOC(=O)CC(O)(CC(=O)OCC)C(=O)OCC` [Triethyl Citrate, Triethyl 2-hydroxypropane-1,2,3-tricarboxylate], for which the acute toxicity entry was “low”.
